Reference: article PMC7614683, “A small molecule PI3Kα activator for cardioprotection and neuroregeneration” (Nature, 2023)
Like-named read-outs stand apart in the source and are kept apart here.

Key:
Assay in all cases: SelectScreen Z-LYTE kinase activity assay (SI Table 6)
Assay type in all cases: biochemical
[1] = biological target: protein kinases of the Z-LYTE panel (Homo sapiens, UniProt P22607)
Protocol: (§1) 133 protein kinases and 7 lipid kinases were counterscreened, with 1938 used at 1 μM, using the Adapta, Lantha and Z-LYTE assays (SelectScreen Kinase Profiling Service; Thermofisher – experimental details of these assays can be found here: https://www.thermofisher.com/uk/en/home/industrial/pharma-biopharma/drug-discovery-development/target-and-lead-identification-and-validation/kinasebiology/kinase-activity-assays.html. The tree represention in KinMap[59] generated courtesy of Cell Signaling Technology, Inc. (www.cellsignal.com). mTORC1 (mTOR/RAPTOR/LST8) protein complex and ATM kinase and substrates were produced as previously described[57],[60]. Screening of 1938 was conducted using SuperSep Phos-Tag 50 μmol/l 100 x 100 x 6.6 mm 17-well (192-18001/199-18011) gels. For ATM assays, 100 nM ATM was incubated for 30 min at 30°C with 5 μM GST-p53 and 1 mM ATP, in the absence or presence of 200 μM 1938 in ATM Kinase Buffer (50 mM HEPES pH 7.5, 100 mM NaCl, 10% glycerol, 2 mM […], 5 mM MgCl2). As a positive control for ATM activation, the same reaction was carried out with 100 nM ATM/5 μM GST-p53/1 mM ATP in the presence of 100 nM Mre11-Rad50-Nbs1 (MRN) complex, a known activator of ATM[61]. For mTORC1 assays, 50 nM mTORC1 complex (mTOR/LST8/RAPTOR) was incubated for 3 h at 30°C with 15 μM 4E-BP1, 10 mM MgCl2 and 250 μM ATP, in the absence or presence of 200 μM 1938. As a ‘positive’ control, a higher concentration (150 nM) of mTORC1 complex (mTOR/LST8/RAPTOR) was incubated for 3 h at 30°C with 15 μM 4E-BP1, 10 mM MgCl2 and 250 μM ATP. Kinase reactions were quenched by addition of SDS-PAGE Loading Buffer (as per manufacturer’s instructions) and freezing at -20°C before being run on the Phos-tag gels at 150 V for 90 min. Gels were then stained using InstantBlue™ Coomassie, and quantified using BioRad Image Lab Software. Kinase assays were carried out in triplicate.

[2] = biological target: protein kinases of the Z-LYTE panel (Homo sapiens, UniProt O96013)
protein kinases of the Z-LYTE panel (Homo sapiens, UniProt O96013), sequence (O96013 whole entry): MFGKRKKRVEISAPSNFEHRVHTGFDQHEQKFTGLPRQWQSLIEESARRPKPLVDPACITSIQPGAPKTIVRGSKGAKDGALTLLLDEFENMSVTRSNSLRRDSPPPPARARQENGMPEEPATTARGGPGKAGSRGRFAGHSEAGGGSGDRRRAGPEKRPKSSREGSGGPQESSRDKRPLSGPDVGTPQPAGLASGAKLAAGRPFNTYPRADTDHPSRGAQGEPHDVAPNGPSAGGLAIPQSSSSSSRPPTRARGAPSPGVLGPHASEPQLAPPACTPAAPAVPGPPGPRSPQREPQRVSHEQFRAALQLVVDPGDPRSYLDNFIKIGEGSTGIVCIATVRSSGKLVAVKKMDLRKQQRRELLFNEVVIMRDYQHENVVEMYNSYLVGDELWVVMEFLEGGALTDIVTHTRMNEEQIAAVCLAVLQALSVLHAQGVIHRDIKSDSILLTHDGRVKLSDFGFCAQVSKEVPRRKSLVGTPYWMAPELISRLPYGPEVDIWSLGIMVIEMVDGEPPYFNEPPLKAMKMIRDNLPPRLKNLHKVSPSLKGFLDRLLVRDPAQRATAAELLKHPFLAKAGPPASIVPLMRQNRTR
Protocol: as §1

[3] = biological target: protein kinases of the Z-LYTE panel (Homo sapiens, UniProt P06241)
protein kinases of the Z-LYTE panel (Homo sapiens, UniProt P06241), sequence (P06241 whole entry): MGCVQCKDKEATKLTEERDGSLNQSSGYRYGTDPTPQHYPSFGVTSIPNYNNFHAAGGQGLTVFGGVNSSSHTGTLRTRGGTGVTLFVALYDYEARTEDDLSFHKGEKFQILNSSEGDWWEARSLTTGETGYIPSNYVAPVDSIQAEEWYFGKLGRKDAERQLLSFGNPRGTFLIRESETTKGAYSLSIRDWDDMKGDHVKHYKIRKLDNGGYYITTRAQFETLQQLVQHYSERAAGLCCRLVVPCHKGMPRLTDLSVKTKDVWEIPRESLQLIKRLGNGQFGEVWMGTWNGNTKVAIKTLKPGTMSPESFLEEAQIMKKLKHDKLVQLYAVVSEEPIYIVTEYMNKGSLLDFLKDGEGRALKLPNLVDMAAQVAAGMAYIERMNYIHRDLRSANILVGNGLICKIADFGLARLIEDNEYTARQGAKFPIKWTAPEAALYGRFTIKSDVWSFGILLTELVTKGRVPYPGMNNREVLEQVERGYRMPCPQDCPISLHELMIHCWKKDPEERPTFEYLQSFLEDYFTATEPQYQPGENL
Protocol: as §1

[4] = biological target: protein kinases of the Z-LYTE panel (Homo sapiens, UniProt Q13464)
Protocol: as §1

[5] = biological target: protein kinases of the Z-LYTE panel (Homo sapiens, UniProt P14616)
protein kinases of the Z-LYTE panel (Homo sapiens, UniProt P14616), sequence (P14616 27-1297): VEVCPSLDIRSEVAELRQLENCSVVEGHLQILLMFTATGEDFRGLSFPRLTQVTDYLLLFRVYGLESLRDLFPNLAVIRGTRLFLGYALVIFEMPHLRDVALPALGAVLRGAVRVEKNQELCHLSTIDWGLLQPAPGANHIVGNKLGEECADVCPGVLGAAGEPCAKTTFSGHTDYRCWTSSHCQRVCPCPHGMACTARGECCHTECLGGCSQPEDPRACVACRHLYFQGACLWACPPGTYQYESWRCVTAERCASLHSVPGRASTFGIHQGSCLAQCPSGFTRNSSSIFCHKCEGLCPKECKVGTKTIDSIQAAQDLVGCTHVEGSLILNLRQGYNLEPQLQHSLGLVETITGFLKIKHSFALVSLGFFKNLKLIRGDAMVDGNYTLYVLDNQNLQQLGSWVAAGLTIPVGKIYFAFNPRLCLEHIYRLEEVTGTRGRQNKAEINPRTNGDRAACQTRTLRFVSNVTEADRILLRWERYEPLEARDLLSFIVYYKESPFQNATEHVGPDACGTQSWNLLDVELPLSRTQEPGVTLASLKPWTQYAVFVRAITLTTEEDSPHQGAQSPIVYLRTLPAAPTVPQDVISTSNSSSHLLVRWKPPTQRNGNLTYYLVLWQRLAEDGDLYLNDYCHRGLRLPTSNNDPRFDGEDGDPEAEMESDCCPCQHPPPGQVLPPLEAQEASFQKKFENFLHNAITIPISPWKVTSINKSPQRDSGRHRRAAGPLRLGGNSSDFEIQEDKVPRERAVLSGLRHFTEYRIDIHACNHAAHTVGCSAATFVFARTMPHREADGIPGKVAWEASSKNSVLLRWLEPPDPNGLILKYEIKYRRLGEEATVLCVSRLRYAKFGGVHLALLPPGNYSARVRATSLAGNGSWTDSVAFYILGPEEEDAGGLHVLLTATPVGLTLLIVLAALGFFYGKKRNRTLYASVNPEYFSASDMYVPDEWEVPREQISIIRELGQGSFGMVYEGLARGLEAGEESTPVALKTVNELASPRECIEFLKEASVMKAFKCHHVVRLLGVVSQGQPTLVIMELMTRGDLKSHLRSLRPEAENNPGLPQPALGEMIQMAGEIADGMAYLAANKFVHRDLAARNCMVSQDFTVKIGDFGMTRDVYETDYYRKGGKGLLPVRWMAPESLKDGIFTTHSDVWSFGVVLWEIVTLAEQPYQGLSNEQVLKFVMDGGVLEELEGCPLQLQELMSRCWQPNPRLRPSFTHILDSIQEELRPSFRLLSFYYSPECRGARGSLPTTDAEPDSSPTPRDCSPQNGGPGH
Protocol: as §1

[6] = biological target: protein kinases of the Z-LYTE panel (Homo sapiens, UniProt P11362)
protein kinases of the Z-LYTE panel (Homo sapiens, UniProt P11362), sequence (P11362 22-822): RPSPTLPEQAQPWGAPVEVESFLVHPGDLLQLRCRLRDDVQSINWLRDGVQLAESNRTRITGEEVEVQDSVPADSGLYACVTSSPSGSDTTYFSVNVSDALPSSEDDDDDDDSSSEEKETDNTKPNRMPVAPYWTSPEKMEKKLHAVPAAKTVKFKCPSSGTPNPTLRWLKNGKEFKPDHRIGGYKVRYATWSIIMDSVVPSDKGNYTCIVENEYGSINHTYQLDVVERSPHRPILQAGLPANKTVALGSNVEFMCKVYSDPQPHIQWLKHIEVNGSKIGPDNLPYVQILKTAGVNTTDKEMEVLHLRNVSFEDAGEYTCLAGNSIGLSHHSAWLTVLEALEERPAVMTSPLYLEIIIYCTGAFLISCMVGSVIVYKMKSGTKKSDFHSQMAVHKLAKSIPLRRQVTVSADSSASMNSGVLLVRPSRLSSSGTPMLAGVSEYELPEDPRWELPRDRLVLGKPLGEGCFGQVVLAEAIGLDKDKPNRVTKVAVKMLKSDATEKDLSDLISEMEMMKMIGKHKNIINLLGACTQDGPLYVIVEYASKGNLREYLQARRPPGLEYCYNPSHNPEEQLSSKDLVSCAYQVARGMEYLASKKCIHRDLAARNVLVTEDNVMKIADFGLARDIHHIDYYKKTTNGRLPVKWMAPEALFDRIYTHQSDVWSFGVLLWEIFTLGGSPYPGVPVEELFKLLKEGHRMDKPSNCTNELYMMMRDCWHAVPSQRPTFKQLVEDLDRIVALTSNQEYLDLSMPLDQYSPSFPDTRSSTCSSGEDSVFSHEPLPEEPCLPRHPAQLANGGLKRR
Protocol: as §1

[7] = biological target: protein kinases of the Z-LYTE panel (Homo sapiens, UniProt P49759)
protein kinases of the Z-LYTE panel (Homo sapiens, UniProt P49759), sequence (P49759 whole entry): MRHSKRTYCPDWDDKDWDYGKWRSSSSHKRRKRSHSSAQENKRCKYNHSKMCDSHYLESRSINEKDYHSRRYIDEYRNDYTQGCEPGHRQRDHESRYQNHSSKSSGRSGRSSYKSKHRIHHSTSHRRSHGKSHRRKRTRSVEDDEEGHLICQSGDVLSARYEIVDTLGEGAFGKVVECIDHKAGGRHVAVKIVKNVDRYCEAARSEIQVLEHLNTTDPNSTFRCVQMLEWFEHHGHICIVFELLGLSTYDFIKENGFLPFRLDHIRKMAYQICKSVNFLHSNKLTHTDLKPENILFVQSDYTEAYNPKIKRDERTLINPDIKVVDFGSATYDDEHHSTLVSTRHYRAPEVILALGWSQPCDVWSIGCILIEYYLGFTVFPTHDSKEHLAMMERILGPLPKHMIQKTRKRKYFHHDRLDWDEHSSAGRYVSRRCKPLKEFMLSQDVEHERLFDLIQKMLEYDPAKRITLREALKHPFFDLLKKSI
Protocol: as §1

[8] = biological target: protein kinases of the Z-LYTE panel (Homo sapiens, UniProt P35968)
Protocol: as §1

[9] = biological target: protein kinases of the Z-LYTE panel (Homo sapiens, UniProt P43405)
Protocol: as §1

[10] = biological target: T1, protein kinases of the Z-LYTE panel (Homo sapiens, UniProt Q12866)
T1 sequence (Q12866 21-999): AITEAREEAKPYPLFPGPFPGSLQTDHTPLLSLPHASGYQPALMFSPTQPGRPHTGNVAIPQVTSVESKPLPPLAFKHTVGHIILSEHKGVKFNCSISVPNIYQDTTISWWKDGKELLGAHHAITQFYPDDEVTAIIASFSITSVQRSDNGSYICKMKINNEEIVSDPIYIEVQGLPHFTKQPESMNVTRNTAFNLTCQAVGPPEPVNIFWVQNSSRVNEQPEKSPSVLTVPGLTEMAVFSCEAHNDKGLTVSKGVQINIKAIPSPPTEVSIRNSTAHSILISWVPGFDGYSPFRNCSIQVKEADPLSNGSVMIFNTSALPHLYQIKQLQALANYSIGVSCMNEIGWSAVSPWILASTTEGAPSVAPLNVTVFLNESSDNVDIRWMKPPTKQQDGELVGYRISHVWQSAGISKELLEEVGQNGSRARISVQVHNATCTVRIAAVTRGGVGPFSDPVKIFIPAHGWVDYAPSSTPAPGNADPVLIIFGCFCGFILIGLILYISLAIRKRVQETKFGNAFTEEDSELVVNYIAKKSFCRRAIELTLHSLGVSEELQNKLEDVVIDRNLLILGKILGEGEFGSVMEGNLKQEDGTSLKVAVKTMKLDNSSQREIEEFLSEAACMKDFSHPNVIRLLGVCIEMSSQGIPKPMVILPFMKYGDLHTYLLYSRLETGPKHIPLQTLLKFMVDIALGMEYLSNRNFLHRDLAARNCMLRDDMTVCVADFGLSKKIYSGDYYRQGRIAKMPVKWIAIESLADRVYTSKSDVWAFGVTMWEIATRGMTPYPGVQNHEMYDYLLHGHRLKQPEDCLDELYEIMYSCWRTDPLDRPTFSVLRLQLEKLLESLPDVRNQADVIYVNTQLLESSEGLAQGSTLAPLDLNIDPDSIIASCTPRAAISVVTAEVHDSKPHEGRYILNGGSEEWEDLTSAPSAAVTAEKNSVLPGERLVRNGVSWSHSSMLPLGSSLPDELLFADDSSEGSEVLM
Protocol: as §1

[11] = biological target: protein kinases of the Z-LYTE panel (Homo sapiens, UniProt Q04912)
Protocol: as §1

protein kinases of the Z-LYTE panel (Homo sapiens, UniProt P22607), sequence (P22607 23-806): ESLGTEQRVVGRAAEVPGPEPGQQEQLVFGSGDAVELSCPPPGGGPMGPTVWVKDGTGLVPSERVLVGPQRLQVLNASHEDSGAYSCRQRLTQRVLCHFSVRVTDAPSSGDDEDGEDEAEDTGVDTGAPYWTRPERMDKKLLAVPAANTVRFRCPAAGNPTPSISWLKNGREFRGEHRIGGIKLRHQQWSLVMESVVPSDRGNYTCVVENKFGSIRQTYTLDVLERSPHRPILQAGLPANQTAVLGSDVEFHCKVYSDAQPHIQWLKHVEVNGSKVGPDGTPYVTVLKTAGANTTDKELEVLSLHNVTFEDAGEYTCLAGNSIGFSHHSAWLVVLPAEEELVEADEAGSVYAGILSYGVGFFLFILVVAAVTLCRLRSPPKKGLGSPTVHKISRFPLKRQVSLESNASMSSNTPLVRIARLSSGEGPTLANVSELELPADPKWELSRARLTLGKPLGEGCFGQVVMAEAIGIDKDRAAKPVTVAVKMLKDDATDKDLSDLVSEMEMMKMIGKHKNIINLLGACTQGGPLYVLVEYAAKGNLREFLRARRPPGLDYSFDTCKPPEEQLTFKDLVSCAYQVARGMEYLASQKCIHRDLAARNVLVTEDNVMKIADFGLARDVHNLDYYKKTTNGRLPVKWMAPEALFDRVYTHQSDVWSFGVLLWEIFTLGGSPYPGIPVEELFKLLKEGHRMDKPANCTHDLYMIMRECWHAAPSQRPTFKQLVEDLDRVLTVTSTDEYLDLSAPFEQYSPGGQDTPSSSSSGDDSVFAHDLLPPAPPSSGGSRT

CCN1CCN(c2ccc(Nc3cc(Nc4cccc5c4N(C(C)=O)CC5)ccn3)cc2)CC1 [Compound 1938]
inhibition at 1 µM ([1]; read-out: % Inhibition Point 1): 6% | inhibition at 1 µM ([1]; read-out: % Inhibition Point 2): 6% | inhibition at 1 µM ([1]; read-out: % Inhibition mean): 6% | inhibition at 1 µM ([2]; read-out: % Inhibition Point 1): -3.77% | inhibition at 1 µM ([2]; read-out: % Inhibition Point 2): -2.13% | inhibition at 1 µM ([2]; read-out: % Inhibition mean): -3% | inhibition at 1 µM ([3]; read-out: % Inhibition Point 1): 6% | inhibition at 1 µM ([3]; read-out: % Inhibition Point 2): 7% | inhibition at 1 µM ([3]; read-out: % Inhibition mean): 6.46% | inhibition at 1 µM ([4]; read-out: % Inhibition Point 1): 0.45% | inhibition at 1 µM ([4]; read-out: % Inhibition Point 2): 0.0147% | inhibition at 1 µM ([4]; read-out: % Inhibition mean): 0.233% | inhibition at 1 µM ([5]; read-out: % Inhibition Point 1): 9% | inhibition at 1 µM ([5]; read-out: % Inhibition Point 2): 8% | inhibition at 1 µM ([5]; read-out: % Inhibition mean): 8% | inhibition at 1 µM ([6]; read-out: % Inhibition Point 1): 25% | inhibition at 1 µM ([6]; read-out: % Inhibition Point 2): 23% | inhibition at 1 µM ([6]; read-out: % Inhibition mean): 24% | inhibition at 1 µM ([7]; read-out: % Inhibition Point 1): 2.18% | inhibition at 1 µM ([7]; read-out: % Inhibition Point 2): 6% | inhibition at 1 µM ([7]; read-out: % Inhibition mean): 4% | inhibition at 1 µM ([8]; read-out: % Inhibition Point 1): 10% | inhibition at 1 µM ([8]; read-out: % Inhibition Point 2): 6.41% | inhibition at 1 µM ([8]; read-out: % Inhibition mean): 8% | inhibition at 1 µM ([9]; read-out: % Inhibition Point 1): 3% | inhibition at 1 µM ([9]; read-out: % Inhibition Point 2): 3.66% | inhibition at 1 µM ([9]; read-out: % Inhibition mean): 3.32% | inhibition at 1 µM ([10]; read-out: % Inhibition Point 1): 12% | inhibition at 1 µM ([10]; read-out: % Inhibition Point 2): 9% | inhibition at 1 µM ([10]; read-out: % Inhibition mean): 11% | inhibition at 1 µM ([11]; read-out: % Inhibition Point 1): 8% | inhibition at 1 µM ([11]; read-out: % Inhibition Point 2): 8.5% | inhibition at 1 µM ([11]; read-out: % Inhibition mean): 8%
